Data from patent publication US9750242B2, “Nitrite salts as poisons in baits for omnivores” (priority 2007, dated 2017).
Read-outs that look alike come from different tables or passages of the source.

Experiments:
[1] = tested on: Northern brown bandicoot
[2] = tested on: Pig
[3] = tested on: feral pigs; experiment: Bait delivery trial: sodium nitrite to feral pigs in food; assay type: in vivo, feral pig
Description: The trials were conducted in October 2005 and June 2006. Both trials were designed to test the hypothesis that SN would be lethal to feral pigs when they consumed the toxin freely in food. […] Before the toxin trial, each feral pig was pre-fed daily for 10 days with the bait substrate they were to receive during the toxin trial (bait or dry wheat). During the trial, six feral pigs acted as controls, receiving no toxin, but receiving bait substrate (carrier material). Three of these received wheat and three received the manufactured baits of the type described in Example 2. The remaining 18 feral pigs were divided into three groups of six animals. Three pigs in each group received 250 or 500 g (depending on body size and therefore total toxic dose to deliver) of wheat and the other three received one or two the baits (again, amount of toxin dependent). […] Feral pigs were observed every 15 minutes for 6 hours, then hourly for 6 hours, then at euthanasia 12 hours after clinical signs developed (if they remained alive). Each dose rate contained six animals divided evenly amongst two bait carrier materials. Six controls were used.

[4] = tested on: Common brushtail possum
[5] = tested on: Raccoon
[6] = tested on: Rat
[7] = tested on: Mouse
[8] = tested on: feral pigs; conditions: for Mean peak Met hb: approximate peak
Description: The captive feral pig colony at Robert Wicks Pest Animal Research Centre (Queensland Department of Natural Resource, Mines and Water) was comprised of feral pigs harvested by commercial harvesters in the area surrounding Inglewood, Queensland. A variety of sexes, ages and sizes were drawn at random from the captive colony and used in these trials. Feral pigs were housed in the purpose built feral pig accommodation.
This trial occurred in January 2006. The trial design is set out in FIG. 5. Twenty-one fasted captive feral pigs were anaesthetised with ketamine (20 mgkg^−1) and xylazine (1.2 mgkg^−1) by intramuscular injection with a 16 gauge needle into the quadriceps muscle. […] The resulting liquid was then administered by oesophageal gavage to an individual feral pig. A number of sodium nitrate dosages were trialled on different groups of feral pigs. After administration, feral pigs were observed carefully for clinical signs and death. […] Each dose rate contained three feral pigs.
This was done on an identical manner to the placebo feral pigs.
Feral pigs were then sampled opportunistically at various times over the following minutes or hours. […] Feral pigs which recovered from anaesthetic quickly, or were large, were sampled less frequently than other feral pigs. All feral pigs were also blood sampled immediately after death (within 1 minute). The blood samples were used to assess Methaemoglobin levels (Met […] Hb). An automated radio-oximeter (model ABL520 supplied by Radiometer Copenhagen) was used for blood Met Hb analysis. The Met Hb data from each individual within a group was pooled to provide dose response curves for multiple feral pigs administered at a single dose rate. The feral pigs which received 135 mgkg^−1 were not blood sampled until after death. A post mortem examination was conducted on all feral pigs.
Serial Met Hb levels were pooled for each group of feral pigs receiving a single dose rate and plotted against time. Trend-lines were fitted to the data. Logarithmic functions were used for the three higher dose rates, while a polynomial trend line was fitted to the 90 mgkg^−1 feral pig group. […] This program makes few assumptions about data and consists of a range of univariate, multivariate and graphical routines for analysing matrices of samples. Specifically, ordination by multidimensional scaling (MDS) was used to visually differentiate feral pigs based on variables (time to death, peak Met haemoglobin levels, time to dyspnoea and time to vomiting). One factor was used, dose rate. Data was normalized and 30 random resets occurred. ANOSIM was used to determine whether significant differences between these variables were due to dose rate. SIMPER (a function of Primer) was used to determine dissimilarity between dose rates, or what dose rates were most dissimilar.

[9] = tested on: dingos; conditions: bait delivered 1080, captive trials; cited from earlier work
[10] = 44.8 kg male with profuse bleeding into the thorax
[11] = gavage, doses of 135 mgkg^-1 or above, nine feral pigs

O=NO [SN, Sodium nitrite]
Approximate bait lethal dose [1]: ~696 mg/kg
Approximate gavage lethal dose [1]: ~232 mg/kg
Approximate lethal SN dose ([1]; body size 2 kg): ~1.4 gm
Approximate bait lethal dose [2]: ~310 mg/kg
Approximate gavage lethal dose [2]: ~103 mg/kg
Approximate lethal SN dose ([2]; body size 50 kg): ~15.5 gm
deaths ([3]; 135 mgkg^-1 in bait substrate, six animals): none died
deaths ([3]; 270 mgkg^-1 consumed, five animals): one of these died
deaths ([3]; 540 mgkg^-1 consumed in either bait substrate, 2 for each substrate): 4/4
mean time that clinical signs were displayed ([3]; all animals): 84 ± 41 min
mean time to death (S.D.) ([3]; all dead animals): 141 ± 49 min
mean time that clinical signs were displayed ([3]; animals receiving the full 540 mgkg^-1 dose): 80 ± 51 min
mean time to death (S.D.) ([3]; animals that received the full 540 mgkg^-1 dose): 122 ± 49 min
outcome of one animal with partial dose ([3]; approximately 400 mgkg^-1 in wheat (370 g of 500 g eaten)): still died
Approximate bait lethal dose [4]: ~489 mg/kg
Approximate gavage lethal dose [4]: ~163 mg/kg
Approximate lethal SN dose ([4]; body size 4 kg): ~2.0 gm
Approximate bait lethal dose [5]: ~150 mg/kg
Approximate lethal SN dose ([5]; body size 3 kg): ~0.75 gm
Approximate bait lethal dose [6]: ~291 mg/kg
Approximate gavage lethal dose [6]: ~97 mg/kg
Approximate lethal SN dose ([6]; body size 0.1 kg): ~0.03 gm
Approximate bait lethal dose [7]: ~705 mg/kg
Approximate gavage lethal dose [7]: ~235 mg/kg
Approximate lethal SN dose ([7]; body size 0.03 kg): ~0.02 gm
peak Met Hb level, individual pig [8, 10]: 90.1%
time to death after gavage, individual pig [8, 10]: 47 min
post mortem abnormalities ([8]; 90 mgkg^-1 group): no abnormalities were detected
post mortem abnormalities, only consistent sign ([8]; all animals which died following nitrite ingestion): dark or chocolate coloured blood and subsequent discolouration of organs and tissues which are well vascularised
Met Hb levels in surviving pigs ([8]; gavage 90 mg/kg, 14 hours post administration, two survivors): near zero
deaths of animals dosed ([8]; gavage 90 mgkg^-1): one of three
period of lethargy (lessened gradually) ([8]; gavage 90 mgkg^-1): 4 to 6 h
Death/survival ([8]; gavage 90 mgkg^-1, 3 feral pigs): 1/2
time to death of one animal after dosing ([8]; gavage 90 mgkg^-1, following blood sampling): approximately 5 hours
vomiting ([8]; gavage 90 mgkg^-1, three hours after intoxication): two of three animals
Mean peak Met hb ([8]; gavage 90 mgkg^-1, two from three animals assessed): 55^3%
Mean time to death ([8]; gavage 135 mgkg^-1): 115 ± 18 min
Death/survival ([8]; gavage 135 mgkg^-1, 3 feral pigs): 3/0
Mean peak Met hb ([8]; gavage 135 mgkg^-1): 89 ± 6%
Mean time to death ([8]; gavage 180 mgkg^-1): 87 ± 16 min
Death/survival ([8]; gavage 180 mgkg^-1, 3 feral pigs): 3/0
Mean peak Met hb ([8]; gavage 180 mgkg^-1): 83 ± 8%
Mean time to death ([8]; gavage 180 mgkg^-1 with Na2CO3): 52 ± 26 min
Death/survival ([8]; gavage 180 mgkg^-1 with Na2CO3 (30 g), 3 feral pigs): 3/0
Mean peak Met hb ([8]; gavage 180 mgkg^-1 with Na2CO3): 80 ± 15%
in-coordination, paddling and short convulsive seizures ([8]; gavage >=135 mgkg^-1, close to time of death): two of nine animals
time to dyspnoea after gavage ([8]; gavage >=135 mgkg^-1, most animals): 30 to 60 min
vomiting ([8]; gavage >=135 mgkg^-1, nine animals): Seven animals vomited between 1-4 times
effect on blood Met Hb values ([8]; gavage, all feral pigs that were sampled): rapid increases in blood Met Hb values
range of time to death ([8]; gavage, doses of 135 mgkg^-1 or above): 42 to 130 min
deaths [8, 11]: All nine feral pigs that received doses of 135 mgkg^−1 or above died
mean time to death (S.D.) [8, 11]: 106 ± 75 min
mean peak Met Hb level in killed feral pigs ([8]; gavage, killed feral pigs): 82%

O=C([O-])[O-].[Na+].[Na+] [Sodium carbonate, sodium carbonate, reference compound]
synergism with SN (Met Hb curves) ([8]; 30 g sodium carbonate followed by 180 mgkg^-1 SN, gavage): did not appear to act as a synergist

O=C(O)CF [Example 1080, sodium fluoroacetate]
LD50 dose [9]: 0.11 mg/kg
